Experimental data reported in ChEMBL document CHEMBL5321223, “Effects and mechanism of action of Chrysanthemum morifolium (Jinsi Huangju) on hyperlipidemia and non-alcoholic fatty liver disease” (Eur J Med Chem, 2023).

Tests used:
HepG2 [1] = experiment: Hypolipidemic activity in sodium oleate and sodium palmitate induced human HepG2 cells assessed as decrease in intracellular lipid content at 50 uM by Oil Red O staining based assay; assay type: functional; parameters: scale not given: the % may be the effect or the level left
HepG2 [2] = experiment: Hypolipidemic activity in sodium oleate and sodium palmitate induced human HepG2 cells assessed as decrease in intracellular lipid content at 5 uM by Oil Red O staining based assay; assay type: functional; parameters: scale not given: the % may be the effect or the level left
HepG2 [3] = experiment: Hypolipidemic activity in sodium oleate and sodium palmitate induced human HepG2 cells assessed as decrease in intracellular lipid content at 0.025 mg/ml by Oil Red O staining based assay; assay type: functional; parameters: scale not given: the % may be the effect or the level left
[4] = target: T1, Pancreatic triacylglycerol lipase (Homo sapiens) (UniProt P16233); experiment: Inhibition of Pancreatic lipase (unknown origin) using 4-methylumbelleallyl oleate as substrate at 50 uM by microplate reader assay
T1 sequence (whole entry): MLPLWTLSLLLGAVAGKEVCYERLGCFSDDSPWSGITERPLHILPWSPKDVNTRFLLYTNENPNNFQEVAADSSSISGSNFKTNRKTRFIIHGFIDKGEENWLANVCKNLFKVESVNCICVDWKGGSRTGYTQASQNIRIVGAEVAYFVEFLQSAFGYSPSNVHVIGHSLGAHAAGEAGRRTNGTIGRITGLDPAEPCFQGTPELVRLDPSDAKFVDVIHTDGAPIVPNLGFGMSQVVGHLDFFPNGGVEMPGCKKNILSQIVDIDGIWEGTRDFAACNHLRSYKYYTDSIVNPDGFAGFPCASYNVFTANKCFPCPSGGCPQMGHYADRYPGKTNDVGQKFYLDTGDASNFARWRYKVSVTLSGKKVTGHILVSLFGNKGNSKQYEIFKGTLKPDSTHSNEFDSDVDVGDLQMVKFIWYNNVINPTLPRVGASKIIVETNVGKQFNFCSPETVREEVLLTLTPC

[5] = target: T1, Pancreatic triacylglycerol lipase (Homo sapiens); experiment: Inhibition of Pancreatic lipase (unknown origin) using 4-methylumbelleallyl oleate as substrate at 5 uM by microplate reader assay
HepG2 [6] = experiment: Cytotoxicity against human HepG2 cells assessed as reduction in cell survival at 50 uM; assay type: toxicity, cell-based; settings: hepg2, 50 µM

| inhibition [4] | inhibition [5] | SMILES | Activity (HepG2 [1]) | Activity (HepG2 [2]) | Activity (HepG2 [3]) | Activity (HepG2 [6]) |
| --- | --- | --- | --- | --- | --- | --- |
| – | – | CC[C@H](C)C(=O)O[C@H]1C[C@@H](C)C=C2C=C[C@H](C)[C@H](CC[C@@H]3C[C@@H](O)CC(=O)O3)[C@H]21 [LOVASTATIN] | 89.3% | 76.9% | 97% | – |
| 49.5% | 18.1% | O=c1cc(-c2ccc(O)c(O)c2)oc2cc(O[C@@H]3O[C@H](CO)[C@@H](O)[C@H](O)[C@H]3O)cc(O)c12 [GALUTEOLIN] | 53.2% | 62.5% | – | Non-Toxic |
| 56.3% | 26.7% | O=c1cc(-c2ccc(O)cc2)oc2cc(O)cc(O)c12 [APIGENIN] | – | 92.4% | – | Toxic |
